Measured values from ChEMBL document CHEMBL1201862, “PubChem BioAssay data set” (2004).
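All cell lines were grown in 96-well plates and treated with compound for 48 hours. Here, GI50 denotes the concentration required for 50% inhibition of growth.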 The source made the active and inactive calls. Rule as the data show it: active = GI50 up to about 1.1 µM and inactive = higher.

Tests used:
Assay in all cases: NCI anticancer screen, dose series, 48 h
[1] = system: SR
[2] = system: NCI/ADR-RES
[3] = system: SK-OV-3
[4] = system: EKVX
[5] = system: UACC-62
[6] = system: K562
[7] = system: 786-0
[8] = system: RXF 393
[9] = system: HOP-92
[10] = system: SNB-19
[11] = system: OVCAR-4
[12] = system: SF-295
[13] = system: RPMI-8226
[14] = system: SF-539
[15] = system: ACHN
[16] = system: HCC 2998
[17] = system: SK-MEL-5
[18] = system: OVCAR-5
[19] = system: SNB-75
[20] = system: HL-60

Measured: GI50

CCOC(=O)c1c(N2CCCC2)[nH]c(=O)c(C(c2ccc(OC)cc2)c2c(O)c(C(=O)OCC)c(N3CCCC3)[nH]c2=O)c1O
inactive: [1] 88.9 µM | [2] > 100 µM | [3] > 100 µM | [4] 44.8 µM | [5] > 100 µM | [6] > 100 µM | [7] > 100 µM | [8] 57.3 µM | [9] 12.3 µM | [10] > 100 µM | [11] > 100 µM | [12] 25.7 µM | [13] > 100 µM | [14] > 100 µM | [15] 56 µM | [16] > 100 µM | [17] > 100 µM | [18] 52.7 µM | [19] 21.3 µM

CCOC(=O)C1CCCN1C(=O)c1ccccc1Cl (stereo not drawn)
inactive: [1] > 100 µM | [2] > 100 µM | [4] > 100 µM | [5] 22 µM | [6] > 100 µM | [7] > 100 µM | [8] > 100 µM | [9] 75.9 µM | [10] > 100 µM | [12] > 100 µM | [13] > 100 µM | [14] > 100 µM | [20] > 100 µM | [15] > 100 µM | [16] > 100 µM | [17] > 100 µM | [18] > 100 µM | [19] > 100 µM

Oc1c2c(c(O)c3ccccc13)C1(N=N2)c2ccccc2Oc2ccccc21
inactive: [1] 3.4 µM | [2] 9.57 µM | [3] 16 µM | [4] 13 µM | [5] 11.1 µM | [6] 9.91 µM | [7] 3.2 µM | [8] 1.98 µM | [9] 15.8 µM | [10] 16.2 µM | [12] 15 µM | [13] 2.88 µM | [14] 5.74 µM | [20] 7.03 µM | [15] 3.79 µM | [16] 18.7 µM | [17] 13 µM | [18] 10.2 µM | [19] 17.3 µM

O=C(NNC(=O)c1ccc(Cl)cc1NC(=O)C12CC3CC(CC(C3)C1)C2)c1ccc(Cl)cc1
inactive: [1] 28.8 µM | [2] 24.8 µM | [3] 25.3 µM | [4] 23.2 µM | [5] 21.7 µM | [6] 34.9 µM | [7] 22.5 µM | [8] 19.5 µM | [9] 17.5 µM | [10] 19.1 µM | [11] 34.8 µM | [12] 22.9 µM | [13] 15.7 µM | [14] 23.7 µM | [20] 25.7 µM | [15] 23.6 µM | [16] 17.1 µM | [17] 18 µM | [18] 28.3 µM

C=CCSC1=N/C(=C\c2ccco2)C(=O)N1CC=C
inactive: [1] 25.4 µM | [2] 85.7 µM | [3] > 100 µM | [4] 40.3 µM | [5] 39.4 µM | [6] 35.2 µM | [7] > 100 µM | [8] 22.5 µM | [9] 55.2 µM | [10] > 100 µM | [11] 38 µM | [12] 71.1 µM | [13] 28.2 µM | [14] > 100 µM | [20] 26.8 µM | [15] 34.1 µM | [16] > 100 µM | [17] 37.5 µM | [18] > 100 µM

COc1ccccc1-c1cc(O)c2cccnc2n1
inactive: [1] > 100 µM | [2] 37 µM | [3] 58.1 µM | [4] 53.6 µM | [5] 47.5 µM | [6] 30.3 µM | [7] 76 µM | [8] > 100 µM | [9] 7.89 µM | [10] 69.2 µM | [11] 69.5 µM | [12] 67.9 µM | [13] 44.1 µM | [14] 56.9 µM | [20] 39.3 µM | [15] 64.1 µM | [16] > 100 µM | [17] 31.4 µM | [18] > 100 µM
